Reference: patent US8362054B2, “Therapeutic substituted lactams” (Allergan, Inc., priority 2007, dated 2013)

What was measured:
[1] = target: T1, EP4 (Homo sapiens, UniProt P35408); experiment: EP4 binding (KI)
Description: (§1) U.S. patent application Ser. No. 11/553,143, filed on Oct. 26, 2006, incorporated by reference herein, describes the methods used to obtain the in vitro data in the table below.

[2] = target: T2, hEP3A (Homo sapiens, UniProt P43115); experiment: Other receptors functional assay, hEP3A; format: cell-based
T2 sequence (P43115 1-390): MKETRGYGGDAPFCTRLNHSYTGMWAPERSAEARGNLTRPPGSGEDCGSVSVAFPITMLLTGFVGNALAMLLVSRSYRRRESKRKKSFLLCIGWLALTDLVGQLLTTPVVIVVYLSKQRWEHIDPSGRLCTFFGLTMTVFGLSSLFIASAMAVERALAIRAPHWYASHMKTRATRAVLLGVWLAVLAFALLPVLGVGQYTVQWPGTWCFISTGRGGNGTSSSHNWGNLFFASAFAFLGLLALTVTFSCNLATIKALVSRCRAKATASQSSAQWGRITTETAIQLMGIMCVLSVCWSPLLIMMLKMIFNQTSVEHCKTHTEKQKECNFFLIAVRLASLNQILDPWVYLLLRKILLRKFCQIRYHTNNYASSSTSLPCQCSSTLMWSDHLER
Description: as §1

[3] = target: T3, EP2 (Homo sapiens, UniProt P43116); experiment: EP2 binding (Ki)
Description: as §1

[4] = target: T1, EP4; experiment: EP4 flipr functional assay; format: cell-based
Description: as §1

[5] = target: T3, EP2; experiment: EP2 cAMP assay; format: cell-based
Description: as §1

[6] = target: T3, EP2; experiment: EP2 flipr functional assay; format: cell-based
Description: as §1

T3 sequence (P43116 whole entry): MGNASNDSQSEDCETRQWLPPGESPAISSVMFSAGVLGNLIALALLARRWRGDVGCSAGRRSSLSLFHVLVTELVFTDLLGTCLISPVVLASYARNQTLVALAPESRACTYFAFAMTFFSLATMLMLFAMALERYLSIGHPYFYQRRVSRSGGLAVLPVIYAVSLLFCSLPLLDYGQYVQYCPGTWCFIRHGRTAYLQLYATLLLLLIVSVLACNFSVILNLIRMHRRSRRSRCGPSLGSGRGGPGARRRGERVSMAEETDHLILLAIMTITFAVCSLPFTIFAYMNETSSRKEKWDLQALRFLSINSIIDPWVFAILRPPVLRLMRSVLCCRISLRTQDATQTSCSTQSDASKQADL
T1 sequence (P35408 whole entry): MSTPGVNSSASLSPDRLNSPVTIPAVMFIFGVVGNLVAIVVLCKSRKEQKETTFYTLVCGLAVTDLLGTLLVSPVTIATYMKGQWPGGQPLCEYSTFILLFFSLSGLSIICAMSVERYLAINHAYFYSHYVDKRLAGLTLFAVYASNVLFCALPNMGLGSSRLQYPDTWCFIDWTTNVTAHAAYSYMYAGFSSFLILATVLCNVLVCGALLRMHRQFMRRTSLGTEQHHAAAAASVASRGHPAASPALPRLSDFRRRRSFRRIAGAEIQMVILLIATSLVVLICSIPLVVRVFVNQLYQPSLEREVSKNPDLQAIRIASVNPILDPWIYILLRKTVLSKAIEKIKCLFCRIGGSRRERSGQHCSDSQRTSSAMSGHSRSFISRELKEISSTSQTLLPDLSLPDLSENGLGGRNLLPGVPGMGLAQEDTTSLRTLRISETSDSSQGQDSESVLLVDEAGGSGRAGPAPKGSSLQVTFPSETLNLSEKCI

O=C(O)c1ccc(COC[C@H]2CCC(=O)N2Cc2cc(Cl)cc(Cl)c2)s1 [(R)-5-(((1-(3,5-dichlorobenzyl)-5-oxopyrrolidin-2-yl)methoxy)methyl)thiophene-2-carboxylic acid]
Ki [1]: 7.3 µM | EC50 [2]: 6450 nM | Ki [3]: 2.57 µM | EC50 [4]: > 10 µM | EC50 [5]: 0.081 µM | EC50 [6]: 8.51 µM
